One data set deals with T1, TNKase® (Homo sapiens, UniProt P00750, H332A/K331A/N152Q/R333A/R334A/T138N).
T1 construct: Activase® is a purified glycoprotein of 527 amino acids produced by recombinant DNA technology; purchased Genentech; host or cells: Chinese Hamster Ovary cells
The data set is described as follows: Cleavage of soluble peptides in plasma plus TNKase®, fluorescence plate reader. The format is biochemical. Here is the method: (§1) The peptides in Table 3 were re-synthesized in soluble form with nitrotyrosine (Y(NO2) at the N-terminus and Abz at the ε-amino group of the lysine residue (k(Abz)) at the C-terminus. They were then incubated with human plasma alone or plasma plus TNKase® in a 96-well plate and the cleavage reaction was monitored over a period of time with a fluorescent plate reader. Each well contained 90 μM of peptides, 10 μl of plasma in PBS, ph 7.2, with or without 1 μg of TNKase®, in a final volume of 100 μl. Cleavage was measured as fluorescence intensity at different time intervals in the fluorescence plate reader at 360/440 nm excitation and emission range.

A short description of data set [1]: Cleavage of soluble peptides in human plasma alone, fluorescence plate reader. In kind it is in vitro ADME. The note with it: 90 μM peptide, 10 μl plasma in PBS pH 7.2, without TNKase®. Here is the method:
as §1

The conditions of data set [2]: in vivo; cited from earlier work.
The conditions of data set [3]: 1.25 mg/kg body weight over 3 hours; 8 of 73 patients; cited from earlier work.
For the next data set, the target named is t-PA (Homo sapiens, UniProt P00750). As to conditions: cited from earlier work.
t-PA, sequence (P00750 36-562, species assumed): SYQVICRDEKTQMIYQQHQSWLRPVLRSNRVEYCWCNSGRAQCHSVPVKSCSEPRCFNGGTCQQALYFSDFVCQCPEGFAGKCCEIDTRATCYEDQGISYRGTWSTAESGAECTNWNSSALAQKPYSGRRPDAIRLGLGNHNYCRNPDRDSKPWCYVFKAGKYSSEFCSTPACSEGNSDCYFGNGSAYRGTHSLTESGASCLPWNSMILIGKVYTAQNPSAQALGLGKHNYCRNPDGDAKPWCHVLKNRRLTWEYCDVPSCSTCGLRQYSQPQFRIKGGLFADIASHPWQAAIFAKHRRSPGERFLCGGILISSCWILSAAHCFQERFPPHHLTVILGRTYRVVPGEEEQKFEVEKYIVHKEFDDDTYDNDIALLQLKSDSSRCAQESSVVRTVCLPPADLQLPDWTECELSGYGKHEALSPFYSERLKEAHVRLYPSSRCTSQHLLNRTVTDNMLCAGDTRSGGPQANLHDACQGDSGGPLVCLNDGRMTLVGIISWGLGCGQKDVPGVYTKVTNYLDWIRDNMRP

Bounds are passed on as bounds.

T1 sequence (P00750 36-562 T138N/N152Q/K331A/H332A/R333A/R334A): as the sequence (P00750 36-562, species assumed) above, with T103N, N117Q, K296A, H297A, R298A, R299A counted along it

Turning to rqYKYkf [compound 20], the “time to complete degradation by TNKase®” value on TNKase® (10 μg/ml TNKase®) was not above 2 h. Further, at TNKase® (10 μg/ml TNKase®, two hours), the “degradation on incubation with TNKase®” value is listed as “completely degraded”. The “susceptibility to TNKase® cleavage” value on TNKase® (plasma plus TNKase®) is on record as “rapidly degraded”. The “stability / cleavage in human plasma” value in data set [1] is listed as “completely stable”.
As for “Activase®: purified recombinant t-PA glycoprotein of 527 amino acids, from Genentech”, in data set [2], the initial plasma half-life is 5 min and the plasma clearance is 380 to 570 mL/min. Besides, the “patients with a decrease in fibrinogen to below 100 mg/dl” value in data set [3] is on record as 11%.
Turning to GGSG PFGR↓SA LVPEE, the “hydrolysis efficiency by t-PA versus a peptide of similar length from the native cleavage site of plasminogen” value at t-PA was 5000 fold.

Values taken from patent US20050255042A1, “On-demand cleavable linkers for radioconjugates for cancer imaging and therapy” (The Regents of the University of California Office of …, priority 2003, published 2005).
